Where two headings read alike, the source gives them in different places.
What was measured:
[1] = test system: HCV replicon in HUH-7 cells; assay: HCV replicon FRET assay; assay type: cell-based, Hepatitis C virus (strain 1b); details: Hepatitis C virus
Procedure, shortened: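 HUH-7 cells stably carrying a genotype 1b subgenomic HCV replicon (neo selection) treated with compound for 4 days at 37 °C, 0.5% DMSO final. Cytotoxicity (CC50) from alamar Blue fluorescence after 4 h (ex 530/em 580 nm), before the FRET replication read-out.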

[2] = target: T1, human neutrophil elastase (HNE) (Homo sapiens, UniProt P08246); assay: Specificity assay, human neutrophil elastase; assay type: biochemical; details: 2 h enzyme-inhibitor pre-incubation; read-out: HLE activity in the specificity assays
T1 construct: purchased Sigma
T1 sequence (P08246 30-267): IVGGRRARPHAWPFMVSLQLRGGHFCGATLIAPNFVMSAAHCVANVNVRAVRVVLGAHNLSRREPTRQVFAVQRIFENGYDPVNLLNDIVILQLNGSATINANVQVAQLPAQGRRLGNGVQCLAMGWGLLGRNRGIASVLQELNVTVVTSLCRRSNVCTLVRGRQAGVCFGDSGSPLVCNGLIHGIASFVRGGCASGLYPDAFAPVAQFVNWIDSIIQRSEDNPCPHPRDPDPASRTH
Protocol: (§1) The specificities of compounds of the present disclosure were determined against a variety of serine proteases: human neutrophil elastase (HNE), porcine pancreatic elastase (PPE) and human pancreatic chymotrypsin and one cysteine protease: human liver cathepsin B. In all cases a 96-well plate format protocol using colorimetric p-nitroaniline (pNA) substrate specific for each enzyme was used as described previously (PCT Patent Application No. WO 00/09543) with some modifications to the serine protease assays. All enzymes were purchased from Sigma while the substrates were from Bachem.
(§2) Each assay included a 2 h enzyme-inhibitor pre-incubation at room temperature followed by addition of substrate and hydrolysis to ˜30% conversion as measured on a Spectramax Pro microplate reader. Compound concentrations varied from 100 to 0.4 μM depending on their potency.
(§3) The final conditions for each assay were the same as those described in WO 03/099274, page 623.
(§4) The percentage of inhibition was calculated using the formula: [1−((UVinh−UVblank)/(UVctl−UVblank))]×100
(§5) A non-linear curve fit was applied to the inhibition-concentration data, and the 50% effective concentration (IC50) was calculated by the use of Excel XLfit software.

[3] = target: T2, porcine pancreatic elastase (PPE) (Sus scrofa, UniProt P00772); assay: Specificity assay, porcine pancreatic elastase; assay type: biochemical; details: 2 h enzyme-inhibitor pre-incubation; read-out: PPE activity in the specificity assays
T2 construct: purchased Sigma
T2 sequence (P00772 27-266): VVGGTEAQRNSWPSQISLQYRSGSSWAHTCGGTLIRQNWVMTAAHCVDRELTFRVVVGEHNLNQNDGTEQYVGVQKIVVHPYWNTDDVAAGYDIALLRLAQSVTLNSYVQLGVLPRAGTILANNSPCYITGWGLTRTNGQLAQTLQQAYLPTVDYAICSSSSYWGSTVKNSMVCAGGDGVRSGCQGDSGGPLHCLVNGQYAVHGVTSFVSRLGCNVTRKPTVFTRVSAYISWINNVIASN
Protocol: as §1, §2, §3, §4, §5

Work on `C=CC1CC1(NC(=O)[C@@H]1C[C@@H](NC(=O)c2cc(-c3ccccc3)nc3ccccc23)CN1C(=O)[C@@H](NC(=O)CC1CC1)C(C)(C)C)C(=O)NS(=O)(=O)C1CC1` (stereo partly shown) [Compound 9] yielded an EC50 ([1]; HCV replicon cell assay, HUH-7, read-out: EC50 Range) of 0.15 to 15 µM, an EC50 ([1]; HCV replicon, HUH-7 cells, read-out: EC50 value in the replicon assay) of 2.25 µM and an IC50 [2] greater than 100 µM. It also gave an IC50 [3] greater than 100 µM.

Source: US7601686B2, “Hepatitis C virus inhibitors” (Bristol-Myers Squibb Company, priority 2005, dated 2009)
